Structures can show the parent of a compound that is named as a salt.
Molecular target: T1, HiBit-labeled full length SHIP1 protein (Homo sapiens, UniProt Q92835)
T1 construct: thermal stability of a HiBit-labeled full length SHIP1 protein in intact cells; expressed in transfected cells; host or cells: HMC3 (stably transfected)
T1 sequence (Q92835 1-1189): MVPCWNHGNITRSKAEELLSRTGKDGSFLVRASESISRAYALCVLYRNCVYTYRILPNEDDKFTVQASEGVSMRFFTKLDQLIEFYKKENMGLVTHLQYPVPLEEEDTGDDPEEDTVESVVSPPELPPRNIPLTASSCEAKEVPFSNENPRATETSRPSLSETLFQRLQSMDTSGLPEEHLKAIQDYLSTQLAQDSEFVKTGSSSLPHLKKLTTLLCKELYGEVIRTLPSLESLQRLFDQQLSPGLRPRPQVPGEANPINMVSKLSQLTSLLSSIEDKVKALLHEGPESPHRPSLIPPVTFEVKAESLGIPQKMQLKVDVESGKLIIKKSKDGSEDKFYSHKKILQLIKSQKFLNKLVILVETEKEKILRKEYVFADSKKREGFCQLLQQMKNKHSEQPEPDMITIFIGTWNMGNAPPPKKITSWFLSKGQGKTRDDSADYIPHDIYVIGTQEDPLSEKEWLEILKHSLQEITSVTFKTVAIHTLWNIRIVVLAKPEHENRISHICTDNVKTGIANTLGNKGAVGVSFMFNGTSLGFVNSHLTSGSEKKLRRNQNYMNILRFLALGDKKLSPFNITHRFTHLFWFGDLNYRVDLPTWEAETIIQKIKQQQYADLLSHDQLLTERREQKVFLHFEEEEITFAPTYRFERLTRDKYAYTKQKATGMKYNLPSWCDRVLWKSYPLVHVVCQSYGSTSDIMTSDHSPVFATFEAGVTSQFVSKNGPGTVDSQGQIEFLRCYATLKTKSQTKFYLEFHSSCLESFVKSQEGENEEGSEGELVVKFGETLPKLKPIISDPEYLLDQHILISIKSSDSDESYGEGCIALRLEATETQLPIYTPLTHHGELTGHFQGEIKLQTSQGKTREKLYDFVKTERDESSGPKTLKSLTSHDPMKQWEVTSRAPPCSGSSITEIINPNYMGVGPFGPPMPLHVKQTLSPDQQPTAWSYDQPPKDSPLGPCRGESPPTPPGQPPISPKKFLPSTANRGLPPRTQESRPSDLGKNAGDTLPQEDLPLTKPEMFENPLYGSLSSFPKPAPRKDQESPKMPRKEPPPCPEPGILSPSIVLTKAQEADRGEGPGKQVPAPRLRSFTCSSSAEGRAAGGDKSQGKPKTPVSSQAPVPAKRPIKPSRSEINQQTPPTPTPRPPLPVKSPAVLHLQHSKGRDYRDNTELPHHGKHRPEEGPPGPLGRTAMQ
Assay: Cellular thermal shift assay (SplitLuc CETSA), compound dose response
Type: cell-based
Settings: HMC3/HiBit-INPP5D cells, 60 min, heated at 44.2° C.
Description: Cellular thermal shift assay (CETSA). […] This assay was run in the following two formats with HMC3/HiBit-INPP5D stably transfected cells.
2. Compound dose response: run at target Tm (44.2° C. for SHIP1) with compound dosing from 80 uM or 100 uM with 1:3 serial dilutions to generate an 8 point curve. Cells were treated for 60 min before being heated at target Tm for 3 min before luminescence detection. An AC50 was calculated using a four-parameter logistic curve regression model with change at highest concentration noted when difference from control >3SD, otherwise AC50 marked as “nc” for not calculated.
See Martinez et al. (2018) Sci Rep 8: p. 9472; Oh-Hashi et al. (2017) Biochem Biophys Rep 12: pp. 40-45. This assay was run in the following two formats with HMC3/HiBit-INPP5D stably transfected cells.
Compound dose response: run at target Tm (44.2° C. for SHIP1) with compound dosing from 80 uM or 100 uM with 1:3 serial dilutions to generate an 8-point curve. Cells were treated for 60 min before being heated at target Tm for 3 min before luminescence detection. The concentration that induced a half-maximum response (AC50) was calculated using a four-parameter logistic curve regression model with change at highest concentration noted when difference from control >3SD.

`O=C(OCc1ccccc1)N1CCC(n2cc(-c3cncc(OCc4ccccc4Cl)c3)cn2)CC1` [Compound 19, Benzyl 4-(4-(5-((2-chlorobenzyl)oxy)pyridin-3-yl)-1H-pyrazol-1-yl)piperidine-1-carboxylate] was tested, and the “CETSA Min Inhibition (%)” value was 72.1%.

Molecular target: T2, SHIP1 (Homo sapiens, UniProt Q92835)
T2 sequence (Q92835 396-858): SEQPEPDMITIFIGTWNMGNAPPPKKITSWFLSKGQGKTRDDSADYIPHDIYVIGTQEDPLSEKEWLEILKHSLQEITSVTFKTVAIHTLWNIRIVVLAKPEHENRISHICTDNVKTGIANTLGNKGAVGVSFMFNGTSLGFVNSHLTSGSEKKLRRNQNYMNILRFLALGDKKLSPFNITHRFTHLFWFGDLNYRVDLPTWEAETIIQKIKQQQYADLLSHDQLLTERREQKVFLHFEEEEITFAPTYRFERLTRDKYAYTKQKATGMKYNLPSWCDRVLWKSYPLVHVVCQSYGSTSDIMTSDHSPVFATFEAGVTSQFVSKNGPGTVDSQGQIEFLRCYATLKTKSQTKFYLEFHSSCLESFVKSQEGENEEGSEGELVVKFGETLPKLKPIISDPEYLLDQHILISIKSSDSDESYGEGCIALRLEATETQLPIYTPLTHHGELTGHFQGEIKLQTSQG
Assay: Malachite green enzyme assay
Type: biochemical
Settings: Table 1; PI(3,4,5)P3-diC8 52 μM, enzyme 10 nM, SHIP1 Ptase-C2, 25° C., pH7.4; geometric mean; read-out: SHIP1 IC50 μM (n)
From the text: The inventors have performed a screen of 50K compounds at the SHIP1 phosphatase, analyzed a publicly available fragment-based screen, and evaluated inhibitors reported in the literature. They utilized the malachite green assay with PtdIns(3,4,5)P3-diC8 and SHIP1 Ptase-C2 to measure inhibitory potency. A Cellular Thermal Shift Assay was used to confirm target engagement in cells. A phosphoAKT assay was used to provide additional evidence of on-target activity. A high-content imaging assay measuring phagocytosis, cell number, and nuclear intensity was implemented using the BV2 and HMC3 cell lines to characterize cellular pharmacology and cytotoxicity. […] Inhibitors predicted to have drug-like properties were subjected to assays measuring solubility, cellular permeability, and mouse microsomal stability. A physiological based pharmacokinetic model was compared to measured exposure in vivo for select compounds upon oral administration in mice.
Malachite Green Enzyme Assay. […] Compounds diluted in DMSO were added to 384-well plates. Enzyme solution was added. After a 20 min incubation period, the reaction was initiated by addition of PI(3,4,5)P3-diC8. Final compound concentrations ranged from 50 nM to 950 μM. Final reaction concentrations for the PI(3,4,5)P3-diC8 substrate and the enzyme were 52 μM and 10 nM respectively. The reaction was quenched after 10 min by adding Malachite BioMol Green (Enzo Lifesciences, PA, USA). Plates were then incubated for 30 min at room temperature. Absorbance (620 nm) was measured using a SpectraMax Me5 Microplate Reader (Molecular Devices, LLC, USA). IC50 values were calculated by fitting absorbance versus inhibitor concentration.
Compounds diluted in DMSO were added to 384-well plates. Enzyme solution was added. After a 20 min incubation period, the reaction was initiated by addition of PI(3,4,5)P3-diC8. Final compound concentrations ranged from 50 nM to 950 μM. Final reaction concentrations for the PI(3,4,5)P3-diC8 substrate and the enzyme were 52 μM and 10 nM respectively. The reaction was quenched after 10 min by adding Malachite BioMol Green (Enzo Lifesciences, PA, USA). Plates were then incubated for 30 min at room temperature. Absorbance (620 nm) was measured using a SpectraMax Me5 Microplate Reader (Molecular Devices, LLC, USA). IC50 values were calculated by fitting absorbance versus inhibitor concentration and are reported as the geometric mean and standard error of mean with the number of repeats (n) indicated. Compounds and activities are as depicted in tables 1 and 2 above.

Point of comparison: `CC(C)(C)OC(=O)N1CCC(n2cc(-c3cncc(OCc4ccc(Cl)cc4Cl)c3)cn2)CC1` [Compound 8, tert-butyl 4-(4-(5-((2,4-dichlorobenzyl)oxy)pyridin-3-yl)-1H-pyrazol-1-yl)piperidine-1-carboxylate], IC50 18.1 µM. Against it:
- O=C(c1ccccc1)N1CCC(n2cc(-c3cncc(OCc4ccccc4Cl)c3)cn2)CC1 [Compound 18, (4-(4-(5-((2-chlorobenzyl)oxy)pyridin-3-yl)-1H-pyrazol-1-yl)piperidin-1-yl)(phenyl)methanone] — 5.5-fold higher, 99.2 µM
- COC(=O)N1CCC(n2cc(-c3cncc(OCc4ccccc4Cl)c3)cn2)CC1 [Compound 17, Methyl 4-(4-(5-((2-chlorobenzyl)oxy)pyridin-3-yl)-1H-pyrazol-1-yl)piperidine-1-carboxylate] — 7.3-fold higher, 133 µM
- Clc1ccc(COc2cncc(-c3cnn(C4CCNCC4)c3)c2)cc1 [Compound 11, 3-((4-chlorobenzyl)oxy)-5-(1-(piperidin-4-yl)-1H-pyrazol-4-yl)pyridine hydrochloride] — 6-fold higher, 109 µM
- Brc1ccc(COc2cncc(-c3cnn(C4CCNCC4)c3)c2)cc1 [Compound 12, 3-((4-bromobenzyl)oxy)-5-(1-(piperidin-4-yl)-1H-pyrazol-4-yl)pyridine hydrochloride] — 1.6-fold higher, 29.7 µM
- CC(C)(C)OC(=O)N1CCC(n2cc(-c3cncc(OCc4ccc(Cl)cc4)c3)cn2)CC1 [Compound 6, tert-butyl 4-(4-(5-((4-chlorobenzyl)oxy)pyridin-3-yl)-1H-pyrazol-1-yl)piperidine-1-carboxylate] — 7.6-fold higher, 137 µM
- c1ccc(COc2cncc(-c3cnn(C4CCNCC4)c3)c2)cc1 [Compound 14, 3-(benzyloxy)-5-(1-(piperidin-4-yl)-1H-pyrazol-4-yl)pyridine trifluoroacetate] — 11-fold higher, 208 µM

Test system: BV2 cells
Assay: pHrodo-myelin phagocytosis/cell health assay, BV2 cells
Type: cell-based
Settings: Mus musculus, BV-2, compound 48 hrs, 60 μM to 3 nM, (n) in cell
Description: pHrodo-myelin phagocytosis/cell health assay with microglial cells. This 384-well plate high content imaging assay was developed to quantify phagocytosis and cell health simultaneously using either BV2 or HMC3 immortalized microglial cell lines or primary microglia isolated from mouse brain. Cells were cultured in DMEM GlutaMax media (ThermoFisher) containing 10% FBS and Pen-Strep in 37° C. 5% CO2 incubator.
Day 1: Cells were plated (Corning Falcon 384 well Optilux Black and clear bottom plates for imaging) with BV2 at 400 cells/45 μl/well, HMC3 at 600 cells/45 μl/well, or primary at 2000 cell/45 μl/well.
Day 2: Cells were treated with 10× serially diluted compounds in a dose range of 60 μM to 3 nM for 48 hrs at 37° C.
Day 3: Cells were seeded with pHrodo-myelin (for total 20 hrs) 24 hrs after starting compound treatment. The pHrodo-myelin stocks were at 1 mg/ml (protein equivalent) stored in −20° C. or −80° C. freezer. Stocks were thawed and diluted with culture media into 10× seeding solution (50 μg/ml) and added 5 μl/well to 384 well cell plate.
Day 4: Cell staining and imaging. Nuclear staining solution was prepared by adding 1 μl of 10 mg/mL Hoechst-33342 to every 1 ml culture media that will be added to cell plate at 20 μl/well. The final concentration of Hoechst-33342 to cells was about 2.5 μg/ml. Cell plates were incubated for >30 min at 37° C. before imaging. Cell plates were scanned with an ArrayScan automatic high content imaging system using a 10× objective lens, 4 fields/well collected. Three measurements were obtained 1) mean total phagocytosis spot intensity per cell, 2) total cell counts per well, and 3) mean average nuclear intensity per cell for cell health.
This 384-well plate high content imaging assay was developed to quantify phagocytosis and cell health simultaneously using either BV2 or HMC3 immortalized microglial cell lines or primary microglia isolated from mouse brain. Cells were cultured in DMEM GlutaMax media (ThermoFisher) containing 10% FBS and Pen-Strep in 37° C. 5% CO2 incubator. Day 1: Cells were plated (Corning Falcon 384 well Optilux Black and clear bottom plates for imaging) with BV2 at 400 cells/45 μl/well, HMC3 at 600 cells/45 μl/well, or primary at 2000 cell/45 μl/well. Day 2: Cells were treated with 10× serially diluted compounds in a dose range of 60 μM to 3 nM for 48 hrs at 37° C. Day 3: Cells were seeded with pHrodo-myelin (for total 20 hrs) 24 hrs after starting compound treatment. The pHrodo-myelin stocks were at 1 mg/ml (protein equivalent) stored in −20° C. or −80° C. freezer. Stocks were thawed and diluted with culture media into 10× seeding solution (50 μg/ml) and added 5 μl/well to 384 well cell plate. Day 4: Cell staining and imaging. Nuclear staining solution was prepared by adding 1 μl of 10 mg/mL Hoechst-33342 to every 1 ml culture media that will be added to cell plate at 20 μl/well. The final concentration of Hoechst-33342 to cells was about 2.5 μg/ml. Cell plates were incubated for >30 min at 37° C. before imaging. Cell plates were scanned with an ArrayScan automatic high content imaging system using a 10× objective lens, 4 fields/well collected. Three measurements were obtained 1) mean total phagocytosis spot intensity per cell, 2) total cell counts per well, and 3) mean average nuclear intensity per cell for cell health.

Molecule `O=C(OCc1ccccc1)N1CCC(n2cc(-c3cncc(OCc4ccccc4Cl)c3)cn2)CC1` [Compound 19, Benzyl 4-(4-(5-((2-chlorobenzyl)oxy)pyridin-3-yl)-1H-pyrazol-1-yl)piperidine-1-carboxylate] has an EC50 of 0.958 µM.
